Some test systems named below: M19-MEL; DMS-114; XF498; DLD-1; DMS-273; KM-20L2; SNB-78; LXFL 529; RXF 631.
Holding throughout (assay): NCI-60 cell line screen, 48 h

The structures appear in SMILES notation.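 96-well plates; 48 h exposure; 5 concentrations. Endpoints by linear interpolation between flanking doses. Not reached: highest tested concentration assigned. GI50 is the concentration that inhibits growth by half.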 Activity calls are given as the source filed them. No stated cut-off is given here; in the data, active = GI50 up to about 1.1 µM and inactive = higher. A value given as a limit tells only on which side of the number the result lay.

For the compound `NC1=C(Cl)C(=O)c2ccccc2C1=O`, the GI50 in the assay with M19-MEL is 0.518 µM (active); in the assay with DMS-114, 3.89 µM (inactive); in the assay on XF498, 11.2 µM (inactive); with DLD-1 it was 8.75 µM (inactive); in the assay with DMS-273, 5.82 µM (inactive); with KM-20L2 it was 9.12 µM (inactive). Moreover, the values for the GI50 in the assay on SNB-78 and in the assay with LXFL 529 were 25.4 µM (inactive) and 12.6 µM (inactive), respectively.
Regarding `COc1ccc(C(O)/C(=C/n2ccnc2)c2ccccc2)cc1OC` (stereo not given), the GI50 in the assay with M19-MEL, in the assay with DMS-114, with RXF 631, with XF498, in the assay on DLD-1 and with DMS-273 was > 100 µM (inactive) each time. Moreover, the GI50 with KM-20L2 is > 100 µM (inactive).
Take `C=CCNC(=O)NCCCCC(NC(C)=O)C(=O)NCc1ccccc1` (stereo not given): the GI50 with M19-MEL, with DMS-114, with XF498, in the assay with DMS-273, with KM-20L2 and in the assay with LXFL 529 was > 100 µM (inactive) each time.
Take `CC1(C)C(=O)/C=C\C(=O)C(C)(C)C(=O)/C=C\C(=O)C(C)(C)C2=CC=C(O2)C(C)(C)C(=O)/C=C\C1=O`: the GI50 in the assay with M19-MEL is 5.86 µM (inactive); in the assay with DMS-114 it was 8.26 µM (inactive); in the assay with RXF 631 it was 7.82 µM (inactive); with XF498, 1.88 µM (inactive); in the assay on DLD-1, 1.72 µM (inactive); with DMS-273, 2.94 µM (inactive). For the same compound, the GI50 in the assay with KM-20L2 was 13.9 µM (inactive); with SNB-78, 3.71 µM (inactive); in the assay with LXFL 529 it was 2.4 µM (inactive).
`Cc1ccc(C(=O)N2CCN(C(=O)c3ccc(C)cc3)c3ccccc32)cc1`: the GI50 in the assay with M19-MEL was 4.39 µM (inactive); in the assay on DMS-114, 3.78 µM (inactive); in the assay on XF498, 4.93 µM (inactive); with DLD-1, 4.23 µM (inactive); in the assay on DMS-273, 2.05 µM (inactive); in the assay with KM-20L2, 3.28 µM (inactive). For the same compound, the results for the GI50 in the assay on SNB-78 and in the assay with LXFL 529 were 6.97 µM (inactive) and 6.5 µM (inactive), respectively.
Turning to `CCC1(O)C(=O)OCc2c1cc1n(c2=O)Cc2c-1nc1ccccc1c2OC` (stereo not given), the GI50 in the assay with M19-MEL was 0.0438 µM (active); in the assay on DMS-114, < 0.0117 µM (active); in the assay on DLD-1, 0.488 µM (active); with DMS-273, < 0.01 µM (active); in the assay with KM-20L2, 0.0512 µM (active); in the assay with SNB-78 it was 2.13 µM (inactive). The GI50 in the assay with LXFL 529 was 0.434 µM (active).
`COc1ccc2c(c1)Oc1cc(O)ccc1[C@@H]2c1ccccc1C(=O)NC(C)c1ccccc1` (stereo not given in full): the GI50 with M19-MEL was 15.9 µM (inactive); with DMS-114, 12.7 µM (inactive); with DLD-1, 13.9 µM (inactive); with DMS-273 it was 14.3 µM (inactive); in the assay with KM-20L2, 14.9 µM (inactive); in the assay with SNB-78, 13.3 µM (inactive). Moreover, the GI50 in the assay on LXFL 529 was 14.2 µM (inactive).
For `Cc1ccc(C(=O)NCCN(C)C)c2nc3ccccc3cc12`, the GI50 in the assay with M19-MEL is 2.31 µM (inactive); in the assay on DMS-114 it was 2.78 µM (inactive); in the assay on RXF 631 it was 0.817 µM (active); in the assay with XF498, 1.38 µM (inactive); in the assay with DLD-1, 1.32 µM (inactive); in the assay on DMS-273, 0.467 µM (active). Besides, the GI50 in the assay with KM-20L2 was 0.661 µM (active); in the assay with SNB-78, 13.2 µM (inactive); in the assay with LXFL 529, 2.15 µM (inactive).
For the compound `N#C/C(=C1\SCC(=O)N1c1ccccc1)c1nc2ccccc2[nH]1`, the GI50 in the assay on M19-MEL, in the assay on DMS-114, with XF498, in the assay with DLD-1, with DMS-273 and with KM-20L2 was > 100 µM (inactive) in each case. Further, the GI50 with SNB-78 and in the assay on LXFL 529 was > 100 µM (inactive) throughout.
Take `CCN(CC)CC(C(=O)Nc1c(C)cccc1C)/C(C)=N\NC(=O)c1ccncc1` (stereo not given): the GI50 with M19-MEL, with DMS-114, with RXF 631, in the assay on XF498, with DLD-1 and with DMS-273 was > 100 µM (inactive) throughout. For the same compound, the GI50 with SNB-78 and in the assay on LXFL 529 was > 100 µM (inactive) throughout.
With `CCOC(=O)C1=C(C)N(NC(N)=O)C2(N)N(NC(N)=O)C(C)=C(C(=O)OCC)C12C#N` (stereo not given), the GI50 with M19-MEL, in the assay on DMS-114, in the assay on RXF 631, in the assay on XF498, in the assay with DLD-1 and with DMS-273 was > 100 µM (inactive) in each case. Besides, the GI50 with KM-20L2 and in the assay with LXFL 529 was > 100 µM (inactive) in each case.
For `Cc1ccc(NC(=O)CC/C(CC(=O)C(C)(C)C)=N\NC(=O)C[n+]2ccccc2)cc1C`, the GI50 with M19-MEL was > 100 µM (inactive); in the assay with DMS-114, 73.6 µM (inactive); with XF498 it was 87.7 µM (inactive); with DMS-273, > 100 µM (inactive); with KM-20L2, > 100 µM (inactive); in the assay with SNB-78, > 100 µM (inactive). Moreover, in the assay on LXFL 529, the GI50 is > 100 µM (inactive).
Take `COC(=O)N/N=C(\C(=O)Nc1cccc([N+](=O)[O-])c1)c1nc2ccc([N+](=O)[O-])cc2nc1O`: the GI50 with M19-MEL is 74.3 µM (inactive); in the assay with DMS-114, 8.09 µM (inactive); in the assay on XF498, 0.494 µM (active); in the assay with DLD-1 it was > 100 µM (inactive); in the assay on KM-20L2, 13.9 µM (inactive); in the assay with LXFL 529, 27.7 µM (inactive).
Consider `O=C(O)CNS(=O)(=O)c1ccc(NC(=O)CI)cc1`, for which the GI50 is 32.4 µM (inactive) in the assay with M19-MEL; 16.4 µM (inactive) in the assay on RXF 631; 14.6 µM (inactive) in the assay with XF498; 26.9 µM (inactive) in the assay on DLD-1; 17.7 µM (inactive) in the assay on DMS-273; 23.1 µM (inactive) with KM-20L2. In addition, the GI50 in the assay with LXFL 529 was 6.97 µM (inactive).
Consider `COP(=O)(OC)C(NC(=O)C(F)(F)F)(c1ccccc1)C(F)(F)F` (stereo not given), for which the GI50 in the assay with M19-MEL, in the assay on DMS-114, with XF498, in the assay on DLD-1, with DMS-273 and in the assay on KM-20L2 was > 100 µM (inactive) each time.
Turning to `O=[N+]([O-])c1cnn(C2=CNc3ccccc3N=C2)c1`, the GI50 with M19-MEL, in the assay on RXF 631, in the assay with XF498, in the assay on DLD-1, in the assay with DMS-273 and in the assay on KM-20L2 was > 100 µM (inactive) throughout. The GI50 in the assay on SNB-78 was > 100 µM (inactive).
Take `O=C1CC[C@@H](S(=O)(=O)c2ccccc2)[C@@H](/C=C/c2ccccc2)O1`: the GI50 was > 100 µM (inactive) with M19-MEL; > 100 µM (inactive) in the assay with DMS-114; < 0.01 µM (active) with XF498; > 100 µM (inactive) with KM-20L2; > 100 µM (inactive) in the assay on LXFL 529.
Take `Cc1ccc2c(ccc(/C=C\c3cc(C)c4cccnc4c3O)[n+]2C)c1`: the GI50 in the assay with DMS-114 was 0.811 µM (active); with DLD-1, 0.849 µM (active); in the assay with DMS-273, 0.352 µM (active); in the assay on KM-20L2, 2.84 µM (inactive); in the assay on LXFL 529, 0.3 µM (active).
Turning to `CC(C)(C)CC(C)(C)NCC(O)COc1ccc(C(C)(C)c2ccc(OCC(O)CNC(C)(C)CC(C)(C)C)cc2)cc1` (stereo not given), the GI50 is 1.53 µM (inactive) with M19-MEL; 1.76 µM (inactive) with DMS-114; 1.64 µM (inactive) in the assay with XF498; 0.832 µM (active) in the assay with DLD-1; 1.04 µM (active) in the assay with DMS-273; 1.47 µM (inactive) with KM-20L2. Moreover, the figures for the GI50 in the assay with SNB-78 and with LXFL 529 were 1.95 µM (inactive) and 0.357 µM (active), respectively.
As to `COC(=O)C1=C(C[S+]([O-])c2ccc([N+](=O)[O-])cc2[N+](=O)[O-])C2C=CC1C2` (stereo not given), the GI50 is 20.1 µM (inactive) in the assay with M19-MEL; 23.4 µM (inactive) in the assay on DMS-114; 17.8 µM (inactive) with RXF 631; 28.5 µM (inactive) in the assay with XF498; 19.1 µM (inactive) in the assay with DLD-1; 20.2 µM (inactive) in the assay with DMS-273. For the same compound, the GI50 in the assay on KM-20L2 is 22 µM (inactive); in the assay on SNB-78 it was 48.3 µM (inactive); with LXFL 529, 22.2 µM (inactive).
As to `CCOC(=O)/C(C)=C(/O)C(=O)OCC`, the GI50 in the assay on DMS-114, in the assay with RXF 631, in the assay with XF498, with DLD-1, in the assay on DMS-273 and in the assay with SNB-78 was > 100 µM (inactive) throughout. In addition, the GI50 with LXFL 529 is > 100 µM (inactive).
Consider `COC1O[C@@H]2COC(C)(C)O[C@@H]2C(=O)N1Nc1ccc([N+](=O)[O-])cc1` (stereo not given in full), for which the GI50 was > 100 µM (inactive) with M19-MEL; > 100 µM (inactive) in the assay on XF498; 35.1 µM (inactive) in the assay with DLD-1; > 100 µM (inactive) in the assay on DMS-273; > 100 µM (inactive) with KM-20L2; 55.1 µM (inactive) with LXFL 529.
For the compound `CC(C)(O)C(O)COc1c2c(cc3oc(=O)ccc13)OCO2` (stereo not given), the GI50 with M19-MEL, with DMS-114, in the assay on XF498, in the assay on DLD-1, in the assay on DMS-273 and with KM-20L2 was > 100 µM (inactive) in each case. In addition, the GI50 with LXFL 529 was > 100 µM (inactive).

The record behind these values is ChEMBL document CHEMBL1201862, “PubChem BioAssay data set” (2004).
